In test [1] the test system is MOLT-4. The test can be described thus: Cytotoxicity was evaluated against Molt-4 tumor cell lines. In kind it is functional, cell-based. The following applies: Homo sapiens.
The subject of test [2] is HL-60. Put plainly: Cytotoxicity evaluated against HL-60 tumor cell lines; Significant activity. The following applies: Homo sapiens. The test is classed as functional, cell-based.
Test [3] deals with A549. Put plainly: Cytotoxicity evaluated against A549 tumor cell lines; significant activity. The test is classed as functional, cell-based. The following applies: Homo sapiens.
Test [4] has as its system B16. The test can be described thus: Cytotoxicity was evaluated against B16 tumor cell lines; Significant activity. In kind it is functional, cell-based. The following applies: Mus musculus.
Test [5] relates to CCRF-CEM. The test can be described thus: Cytotoxicity evaluated against CEM tumor cell lines; Significant activity. The test is classed as functional, cell-based. The settings on record: Homo sapiens.
Test [6] has as its system L1210. Put plainly: Cytotoxicity evaluated against L1210 tumor cell lines; Significant activity. In kind it is functional, cell-based. The following applies: Mus musculus.
For test [7], the system named is NCI-H292. Put plainly: Cytotoxicity evaluated against H292 tumor cell lines; Significant activity. In kind it is functional, cell-based. The settings on record: Homo sapiens.
Test [8] deals with K562. Put plainly: Cytotoxicity evaluated against K562 tumor cell lines; Significant activity. The test is classed as functional, cell-based. The settings on record: Homo sapiens.
The test system of test [9] is WI-38. The test can be described thus: Cytotoxicity evaluated against WI38 tumor cell lines; Significant activity. The test is classed as functional, cell-based. The settings on record: Homo sapiens.
The next test deals with Jurkat. The test can be described thus: In vitro test for antitumor activity against human Jurkat cell line using a formazan dye (MTT) conversion assay. The test is classed as functional, cell-based.
Test [10] has as its system WIL2. The test can be described thus: Cytotoxicity evaluated against WIL2 tumor cell lines; Significant activity. In kind it is functional, cell-based. The settings on record: Homo sapiens.
The next test relates to Tumor cell line. The test can be described thus: In vivo testing against tumor cells that were placed in the polyvinylidene fluoride (PVDF) hollow fibers of capsules and then implanted in to mice intraperitoneally or subcutaneously. In kind it is functional, Mus musculus.
The test system of test [11] is NIH3T3. Put plainly: Cytotoxicity evaluated against NIH3T3 tumor cell lines; Significant activity. The test is classed as functional, cell-based. The following applies: Mus musculus.
The subject of test [12] is MCF7. The test can be described thus: Cytotoxicity evaluated against MCF-7 tumor cell lines; Significant activity. In kind it is functional, cell-based. The settings on record: Homo sapiens.
Test [13] deals with NCI-H596. Put plainly: Cytotoxicity evaluated against H596 tumor cell lines; Significant activity. The settings on record: Homo sapiens. The test is classed as functional, cell-based.
The test system of test [14] is WI-38. The test can be described thus: Cytotoxicity was evaluated against WI38 tumor cell lines; Significant activity. The settings on record: Homo sapiens. In kind it is functional, cell-based.
For test [15], the system named is HL-60. The test can be described thus: Cytotoxicity was evaluated against HL-60 tumor cell lines; Slightly active. The following applies: Homo sapiens. In kind it is functional, cell-based.
Test [16] concerns NCI-H596. Put plainly: Cytotoxicity was evaluated against H596 tumor cell lines; Slightly active. In kind it is functional, cell-based. The following applies: Homo sapiens.
The test system of test [17] is NCI-H292. Put plainly: Cytotoxicity was evaluated against H292 tumor cell lines; Slightly active. The test is classed as functional, cell-based. The settings on record: Homo sapiens.
The test system of test [18] is NIH3T3. The test can be described thus: Cytotoxicity was evaluated against NIH3T3 tumor cell lines; Slightly active. The test is classed as functional, cell-based. The settings on record: Mus musculus.
The subject of test [19] is K562. Put plainly: Cytotoxicity was evaluated against K562 tumor cell lines; Slightly active. In kind it is functional, cell-based. The following applies: Homo sapiens.
The test system of test [20] is L1210. Put plainly: Cytotoxicity was evaluated against L1210 tumor cell lines; Slightly active. In kind it is functional, cell-based. The following applies: Mus musculus.
Test [21] concerns MCF7. The test can be described thus: Cytotoxicity was evaluated against MCF-7 tumor cell lines; Slightly active. In kind it is functional, cell-based. The settings on record: Homo sapiens.
Test [22] relates to B16. Put plainly: Cytotoxicity was evaluated against B16 tumor cell lines; Slightly active. In kind it is functional, cell-based. The settings on record: Mus musculus.
Test [23] deals with A549. Put plainly: Cytotoxicity was evaluated against A549 tumor cell lines; Slightly active. The test is classed as functional, cell-based. The settings on record: Homo sapiens.
The subject of test [24] is MOLT-4. Put plainly: Cytotoxicity was evaluated against Molt-4 tumor cell lines; Slightly active. The test is classed as functional, cell-based. The following applies: Homo sapiens.
For test [25], the system named is CCRF-CEM. The test can be described thus: Cytotoxicity was evaluated against CEM tumor cell lines; Slightly active. In kind it is functional, cell-based. The following applies: Homo sapiens.
The test system of test [26] is WIL2. Put plainly: Cytotoxicity was evaluated against WIL2 tumor cell lines; Slightly active. The test is classed as functional, cell-based. The following applies: Homo sapiens.
Test [27] deals with WI-38. Put plainly: Cytotoxicity was evaluated against WI38 tumor cell lines; Slightly active. In kind it is functional, cell-based. The settings on record: Homo sapiens.

Where only a bound is given, the exact number is not on record here.

For `COc1cc(/C=C2\Cc3cc(OC)c(OC)cc3C2=O)cc(OC)c1`, the Cytotoxicity result in the test with MOLT-4 [1], in the test on HL-60 [2], in the test on A549 [3], in the test with B16 [4], in the test with CCRF-CEM [5] and in the test on L1210 [6] was “Significant activity” throughout. Also, the Cytotoxicity result in the test on NCI-H292 [7], with K562 [8], in the test with WI-38 [9], in the test with WIL2 [10], in the test on NIH3T3 [11] and with MCF7 [12] was “Significant activity” each time. For the same compound, the Cytotoxicity result with NCI-H596 [13] was “Significant activity”. Besides, inhibition with Jurkat was half-maximal at 3 µM (IC50). The “IP+SC score” value with Tumor cell line was <20.
Take `COc1cc2c(c(N)c1OC)C(=O)/C(=C/c1cc(C)c(O)c(C)c1)C2`: the Cytotoxicity entry in the test with MOLT-4 [1], in the test with HL-60 [2], with A549 [3], with B16 [4], in the test on CCRF-CEM [5] and with L1210 [6] was “Significant activity” in each case. For the same compound, the Cytotoxicity entry with NCI-H292 [7], with K562 [8], in the test on WI-38 [9], in the test with WIL2 [10], in the test on NIH3T3 [11] and in the test on MCF7 [12] was “Significant activity” throughout. Also, the Cytotoxicity result with NCI-H596 [13] was “Significant activity”. For the same compound, in the test with Jurkat, the IC50 – broadly, the concentration that inhibits the measured activity by half – was determined as 0.004 µM. For the same compound, the “IP+SC score” value with Tumor cell line is recorded as >20.
On to `COc1cccc(/C=C2\CCc3cc(OC)c(OC)cc3C2=O)c1`, for which the Cytotoxicity result with MOLT-4 [1], in the test on HL-60 [2], in the test on A549 [3], with B16 [4], with CCRF-CEM [5] and in the test with L1210 [6] was “Significant activity” each time. Further, the Cytotoxicity result with NCI-H292 [7], with WI-38 [14], in the test on K562 [8], with WIL2 [10], in the test with NIH3T3 [11] and in the test with MCF7 [12] was “Significant activity” in each case. In addition, the Cytotoxicity entry in the test with NCI-H596 [13] was “Significant activity”. In the test with Jurkat, the half-maximal inhibitory concentration (IC50) was found to be 5 µM.
For the compound `COc1cc2c(cc1OC)C(=O)/C(=C/c1cc(C)cc(C)c1)C2`, the Cytotoxicity entry in the test on MOLT-4 [1], with HL-60 [2], in the test on A549 [3], in the test on B16 [4], with CCRF-CEM [5] and in the test on L1210 [6] was “Significant activity” each time. For the same compound, the Cytotoxicity result in the test on NCI-H292 [7], in the test with K562 [8], in the test with WI-38 [9], with WIL2 [10], with NIH3T3 [11] and in the test with MCF7 [12] was “Significant activity” in each case. Besides, in the test with NCI-H596 [13], the Cytotoxicity result was “Significant activity”. The compound further showed an IC50 with Jurkat of 0.08 µM. Besides, the “IP+SC score” value with Tumor cell line is <20.
For the compound `COc1cc2c(cc1OC)C(=O)/C(=C/c1cc(Cl)cc(Cl)c1)C2`, the Cytotoxicity entry with MOLT-4 [1], in the test on HL-60 [2], in the test with A549 [3], in the test on B16 [4], with CCRF-CEM [5] and in the test with L1210 [6] was “Significant activity” in each case. Moreover, the Cytotoxicity entry in the test with NCI-H292 [7], in the test on K562 [8], with WI-38 [9], with WIL2 [10], in the test on NIH3T3 [11] and in the test on MCF7 [12] was “Significant activity” in each case. Further, the Cytotoxicity entry in the test with NCI-H596 [13] is “Significant activity”. The compound also returned a half-maximal inhibitory concentration (IC50) with Jurkat of 2 µM. Moreover, in the test with Tumor cell line, the “IP+SC score” value is <20.
Turning to `COc1cc2c(c([N+](=O)[O-])c1O)C/C(=C\c1cc(C)c(O)c(C)c1)C2=O`, the Cytotoxicity result with MOLT-4 [1], in the test with HL-60 [2], in the test with A549 [3], with B16 [4], with CCRF-CEM [5] and in the test with L1210 [6] was “Significant activity” in each case. Also, the Cytotoxicity result in the test on NCI-H292 [7], in the test on WI-38 [14], in the test with K562 [8], in the test on WIL2 [10], with NIH3T3 [11] and in the test on MCF7 [12] was “Significant activity” throughout. Besides, the Cytotoxicity entry with NCI-H596 [13] is “Significant activity”. The IC50 with Jurkat is 9.3 µM.
For the compound `COc1cc2c(cc1OC)C(=O)/C(=C/c1cc(C)c(O)c(C)c1)C2`, the Cytotoxicity entry with MOLT-4 [1], in the test with HL-60 [2], with A549 [3], in the test on B16 [4], with CCRF-CEM [5] and with L1210 [6] was “Significant activity” each time. In addition, the Cytotoxicity result in the test on NCI-H292 [7], with K562 [8], in the test with WI-38 [9], in the test with WIL2 [10], with NIH3T3 [11] and with MCF7 [12] was “Significant activity” each time. In addition, in the test with NCI-H596 [13], the Cytotoxicity entry was “Significant activity”. In the test on Jurkat, half-maximal inhibition (IC50) was put at 0.006 µM. The “IP+SC score” value in the test with Tumor cell line is on record as >20.
Regarding `COc1cc2c(cc1OC)C(=O)/C(=C/c1ccc(N)cc1)CC2`, the Cytotoxicity entry with HL-60 [15], with NCI-H596 [16], in the test on NCI-H292 [17], with NIH3T3 [18], with K562 [19] and in the test with L1210 [20] was “Weak activity” in each case. Besides, the Cytotoxicity result with MCF7 [21], with B16 [22], in the test on A549 [23], in the test with MOLT-4 [24], with CCRF-CEM [25] and in the test on WIL2 [26] was “Weak activity” throughout. The Cytotoxicity result with WI-38 [27] was “Weak activity”. Half-maximal inhibition in the test on Jurkat (IC50) was put at 40 µM.

These data come from ChEMBL document CHEMBL1133412, “Rational design, synthesis and structure-activity relationships of antitumor (E)-2-benzylidene-1-tetralones and (E)-2-benzylidene-1-indanones” (Bioorg Med Chem Lett, 2000).
